Source: patent publication US7205302B2, “Heterocyclic compound derivatives and medicines” (Nippon Shinyaku Co., Ltd., priority 2001, dated 2007)
pIC50: −log10 of the molar value. Where a name gives a salt, the structure may show the parent alone.

Key:
[1] = biological target: T1, PGI2 receptor (human platelet membrane, 3H-Iloprost binding) (Homo sapiens, UniProt P43119); experiment: 3H-Iloprost binding inhibition test to human platelet membrane; conditions: compound 1 μM, 5 nM 3H-Iloprost, 37° C., 10 minutes
T1 construct: Human platelet membrane of 100 μg protein was suspended; from tissue; host or cells: human platelet membrane
T1 sequence (P43119 whole entry): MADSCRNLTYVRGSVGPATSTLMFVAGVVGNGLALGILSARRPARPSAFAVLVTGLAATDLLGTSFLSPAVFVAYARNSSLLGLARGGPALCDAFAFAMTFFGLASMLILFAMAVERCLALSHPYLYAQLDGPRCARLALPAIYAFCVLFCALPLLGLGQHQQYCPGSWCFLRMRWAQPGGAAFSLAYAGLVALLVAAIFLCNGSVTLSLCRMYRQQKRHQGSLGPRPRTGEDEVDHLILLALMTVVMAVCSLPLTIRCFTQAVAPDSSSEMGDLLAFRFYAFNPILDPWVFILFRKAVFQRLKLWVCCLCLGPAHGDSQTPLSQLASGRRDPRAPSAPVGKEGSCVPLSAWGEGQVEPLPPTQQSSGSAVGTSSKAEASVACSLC
Description: ^3H-Iloprost Binding Inhibition Test to Human Platelet Membrane
The platelet membrane was collected on a glass filter and its radioactivity was measured after washing four times with 50 mM Tris-HCl buffer.

[2] = test system: ADP-induced platelet aggregation in human PRP; experiment: Human platelet aggregation inhibition test; assay type: cell-based; conditions: ADP 1×10^−5 M
Description: Human Platelet Aggregation Inhibition Test
Blood collected from healthy human volunteers into aqueous trisodium citrate solution was centrifuged at 200×g for 10 minutes and the upper layer was recovered to obtain platelet-rich plasma (PRP). The residual blood containing trisodium citrate added therein was centrifuged at 1500×g for 10 minutes and the supernatant was collected as platelet-poor plasma (PPP). The number of platelets in the PRP was adjusted to about 300,000/μl by PPP. Platelet aggregation was measured by an aggregometer. 180 μl of PRP was added to cuvettes and incubated at 37° C. for one minute, and then 10 μl of test compound solution (prepared by dissolving a test compound with a 1.5-fold mole of a sodium hydroxide solution and diluting with water) was added and the mixture was further incubated for 2 minutes. Then, 10 μl of aqueous adenosine diphosphate (ADP) solution was added to adjust the final concentration as 1×10^−5 M and platelet aggregation was induced and observed for 7 minutes. Inhibition percentage of aggregation was calculated from the percentage of aggregation upon the addition of the test compound to the percentage of aggregation upon the addition of water in place of the test compound solution (control).

mice = experiment: Single-dose toxicity test in mice; assay type: in vivo; conditions: oral, 10, 30 or 100 mg/kg
Description: Singl-Dose Toxicity Test in Mice
The compound of Example 42 was orally administered to mice (including three mice in a group) at a dose of 10, 30 or 100 mg/kg.

| inhibition of binding of 3H-Iloprost [1] | SMILES | pIC50 [2] | deaths after single oral dose (mice) | melting point |
| --- | --- | --- | --- | --- |
| 85% | CN(CCCCOCC(=O)O)c1cnc(-c2ccccc2)c(-c2ccccc2)n1 [Example 64, 2-{4-[N-(5,6-diphenylpyrazin-2-yl)-N-methylamino]butyloxy}acetic acid] |  |  |  |
|  | CN(CCCCOCC(=O)O)c1ncc(-c2ccccc2)c(-c2ccccc2)n1 [Example 74, 2-{4-[N-(4,5-diphenylpyrimidin-2-yl)-N-methylamino]butyloxy}acetic acid] | 6.10 |  |  |
|  | CC(C)N(CCCCOCC(=O)O)c1cnc(-c2ccccc2)c(-c2ccccc2)n1 [Example 42, 2-{4-[N-(5,6-diphenylpyrazin-2-yl)-N-isopropylamino]butyloxy}acetic acid] | 6.70 | no deaths |  |
|  | CN(CCCCOCC(=O)O)c1c[n+]([O-])c(-c2ccccc2)c(-c2ccccc2)n1 [Example 73, 2,3-diphenyl-5-{N-[4-(carboxymethoxy)butyl]-N-methylamino}pyrazine 1-oxide] | 6.70 |  | 185 to 190 °C |
|  | Cc1ccc(-c2nnc(N(CCCCOCC(=O)O)C(C)C)nc2-c2ccc(C)cc2)cc1 [Example 48, 2-{4-[N-(5,6-di-p-tolyl-1,2,4-triazin-3-yl)-N-isopropylamino]butyloxy}acetic acid] | 6.40 |  | 119 to 121 °C |
|  | CN(CCCCOCC(=O)O)c1ccc(-c2ccccc2)c(-c2ccccc2)n1 [Example 46, 2-{4-[N-(5,6-diphenylpyridin-2-yl)-N-methylamino]butyloxy}acetic acid sodium salt] | 6.30 |  |  |
